From patent US9200319B2, “Nucleotides and nucleosides and methods for their use in DNA sequencing” (Lasergen, Inc., priority 2008, dated 2015)
Values joined by “and” are separate entries in the source; they are usually repeats but may differ in a detail not shown here. Identical values can stand only once. Like-named read-outs stand apart in the source and are kept apart here.

Experiments:
[1] = biological target: T1, THERMINATOR™ DNA polymerase (Thermococcus sp., UniProt Q56366, A485L/D141A/E143A); test: biochemical; set-up: species or system Thermococcus species 9° N-7
T1 construct: purchased New England Biolabs
Protocol: (§1) Natural and modified nucleotides were tested for incorporation efficiency using the “polymerase end point assay” (Wu et al., 2007, which is incorporated herein by reference). This assay examines incorporation efficiency on matched and mismatched template bases. Incorporation efficiency is measured by determining the concentration at which the compound incorporates on half the primer-template complexes (IC50). Titrations of increasing compound concentration were performed to generate curves from which the IC50 can be determined.
(§2) The sequence of the template DNA is selected depending on which compound will be tested. For example, the first interrogation base after the primer in the template sequence is the complement base of the compound when measuring incorporation efficiency, and one of three mismatched bases when measuring mismatch discrimination properties.
(§3) To the annealed reaction, a DNA polymerase (e.g., THERMINATOR™ DNA polymerase, 0.25 units per reaction, New England Biolabs), 1× Thermopol Buffer, and a known concentration of either natural or modified nucleotide are added to each 10 μL reaction and incubated at 75° C. for 10 minutes, cooled on ice, and quenched with 10 μL of stop solution (98% formamide: 10 mM Na2EDTA, pH=8.0, 25 mg/ml Blue Dextran). Stopped reactions are heated to 75° C. for 30 seconds to denature the DNA, and then placed on ice. The extension products are analyzed on a 10% Long Ranger (Lonza) polyacrylamide gel using an ABI model 377 DNA sequencer. Additional details are provided in Example 1, below.
Polymerase Assays. Natural and modified nucleotides were tested for incorporation efficiency using the “polymerase end point assay” (Wu et al., 2007, which is incorporated herein by reference). This assay examines incorporation efficiency on matched and mismatched template bases. Incorporation efficiency is measured by determining the concentration at which the compound incorporates on half the primer-template complexes (IC50). Titrations of increasing compound concentration were performed to generate curves from which the IC50 can be determined.
The assay is performed by first annealing 5 nM of BODIPY-FL labeled primer with 40 nM template DNA in 1× Thermopol Buffer (20 mM Tris-HCl, pH 8.8; 10 mM (NH4)2SO4; 10 mM KCl; 2 mM MgSO4; 0.1% Triton X-100, New England BioLabs).
as §2, with “The temperature cycle to complete primer annealing is 80° C. for 30 seconds, 57° C. for 30 seconds, then cooling to 4° C. The” for “The”
as §3, with “sequencer.” for “sequencer. Additional details are provided in Example 1, below.”

[2] = UV-cleavage of incorporated nucleotide analogs with 365 nm light; conditions: 365 nm UV light, 50 mM NaN3; time at which half the incorporated analog is cleaved
Protocol: Cleavage of the terminating substituted 2-nitrobenzyl group when analogs are incorporated into the primer strand with 365 nm UV light allows for the next cycle of incorporation to resume. Without being bound by theory, at least two factors were found typically influence UV-cleavage rates of incorporated nucleotide analogs: a) stereo-chemistry of the α-carbon substitution of the 2-nitrobenzyl group, and b) substitution on the benzyl ring. Incorporation on a matched template is performed as described above using 1 μM concentration to extend the primer strand. Ten identical tubes are used for each incorporation experiment, after which NaN3 is added to a final concentration of 50 mM. Extended primer reactions are exposed to 365 nm light for various time points using the UV deprotector device described by Wu et al. (2007, which is incorporated herein by reference) and analyzed using an AB model 377 DNA sequencer. The quantitative data are plotted linearly as product formation versus exposure time, and the time point at which half the nucleotide analog is cleaved is calculated, as a DT50 value. […] For example, based on these examples, the ds2 analogs show faster cleavage rates (e.g., lower DT50 values) compared with ds1 analogs. Furthermore, substitution of a methoxy group at the 4 position on the benzyl ring further increases the rate of UV-cleavage, albeit for ds2 analogs only (e.g., the DT50 value for 5p098-ds2 is […] versus that of 1.9 sec for 6p087-ds2). Based on the examples summarized in Table 3, substitution at the α-carbon of the 2-nitrobenzyl ring increases UV-cleavage in a stereospecific manner.

[3] = biological target: T1, THERMINATOR™ DNA polymerase; test: polymerase end point assay, mismatch discrimination (mismatched template bases); format: biochemical, Thermococcus species 9° N-7
Protocol: as §1, §2
The mismatch/match ratios represent the ability of the polymerase to distinguish between correctly incorporating against a matched template base and a mismatch one. Discrimination is considered sufficient when the mismatch/match ratio is greater than or equal to 100 (two orders of magnitude). […] Both natural dGTP and C^7-(2-nitrobenzyloxy)methyl-2′-dGTP (5p107) show mismatch/match ratios ranging from 10 to 360, and 10 to 250, respectively, two of which are below the 100-fold threshold. […] A similar trend is observed for the C^7-hydroxymethyl-dATP analogs. For the compounds shown in Table 1, substitution at the α-carbon of the 2-nitrobenzyl group increases mismatch discrimination in a stereo-specific manner.
as §2, with “The temperature cycle to complete primer annealing is 80° C. for 30 seconds, 57° C. for 30 seconds, then cooling to 4° C. The” for “The”
as §3, with “sequencer.” for “sequencer. Additional details are provided in Example 1, below.”

[4] = biological target: T1, THERMINATOR™ DNA polymerase; test: termination assay, weighted sum analysis on homopolymer repeat template; format: biochemical, Thermococcus species 9° N-7; conditions: 1.0 = complete termination after a single incorporation
Protocol: A weighted sum of 1.0 represents complete termination after a single incorporation, while a value greater than 1.0 indicates incorporation beyond the +1 position (e.g. nucleotide read through). […] The assay is performed as described above for the polymerase end-point assay, except that the template used is a homopolymer repeat, thereby allowing for multiple incorporations of a given nucleotide compound.

[5] = IC50 for incorporation, concentration at which the compound incorporates on half the primer-template complexes, complement template base

T1 sequence (Q56366 whole entry D141A/E143A/A485L): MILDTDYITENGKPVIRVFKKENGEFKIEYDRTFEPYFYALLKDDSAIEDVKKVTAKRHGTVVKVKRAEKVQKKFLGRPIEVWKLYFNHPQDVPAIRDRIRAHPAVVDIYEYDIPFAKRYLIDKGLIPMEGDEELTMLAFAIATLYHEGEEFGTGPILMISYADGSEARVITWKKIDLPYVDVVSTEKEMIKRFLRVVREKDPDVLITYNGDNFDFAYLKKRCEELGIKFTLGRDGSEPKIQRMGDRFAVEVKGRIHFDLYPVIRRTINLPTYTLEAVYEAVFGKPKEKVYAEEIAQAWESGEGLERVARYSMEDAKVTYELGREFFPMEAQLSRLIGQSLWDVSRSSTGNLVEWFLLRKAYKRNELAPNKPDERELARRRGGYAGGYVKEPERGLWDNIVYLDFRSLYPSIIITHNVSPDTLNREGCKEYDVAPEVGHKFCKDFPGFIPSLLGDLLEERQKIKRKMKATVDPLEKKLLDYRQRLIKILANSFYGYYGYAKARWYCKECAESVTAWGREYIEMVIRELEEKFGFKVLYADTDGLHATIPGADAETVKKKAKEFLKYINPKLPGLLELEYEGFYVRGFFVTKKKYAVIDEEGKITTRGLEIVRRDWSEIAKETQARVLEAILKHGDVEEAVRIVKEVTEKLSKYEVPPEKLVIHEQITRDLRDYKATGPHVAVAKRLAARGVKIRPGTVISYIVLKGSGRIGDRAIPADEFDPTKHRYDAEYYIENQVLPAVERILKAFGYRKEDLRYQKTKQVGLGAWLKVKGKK

| SMILES | IC50 [1, 5] | DT50 [2] | Mismatch/match ratio (10^2) ([3]; template base "A") | Mismatch/match ratio (10^2) ([3]; template base "G") | Mismatch/match ratio (10^2) ([3]; template base "T") | further results |
| --- | --- | --- | --- | --- | --- | --- |
| CC(C)C(OCc1cn([C@H]2C[C@H](O)[C@@H](COP(=O)(O)OP(=O)(O)OP(=O)(O)O)O2)c2ncnc(N)c12)c1ccccc1[N+](=O)[O-] (single isomer, unassigned) [5p098-ds1, 7-[1-(2-nitrophenyl)-2-methyl-propyloxy]methyl-7-deaza-2′-deoxyadenosine-5′-triphosphate] | 6.7 ± 0.8 nM | 7.5 ± 0.8 s | – | – | – | – |
| CC(C)C(OCc1cn([C@H]2C[C@H](O)[C@@H](COP(=O)(O)OP(=O)(O)OP(=O)(O)O)O2)c2ncnc(N)c12)c1ccccc1[N+](=O)[O-] (single isomer, unassigned) [5p098-ds2, 7-[1-(2-nitrophenyl)-2-methyl-propyloxy]methyl-7-deaza-2′-deoxyadenosine-5′-triphosphate] | 5.7 ± 1.1 nM | 3.3 s and 3.3 ± 0.2 s | – | – | – | – |
| CC(C)C(OCc1cn([C@H]2C[C@H](O)[C@@H](COP(=O)(O)OP(=O)(O)OP(=O)(O)O)O2)c2nc(N)[nH]c(=O)c12)c1ccccc1[N+](=O)[O-] (single isomer, unassigned) [5p143-ds1, 7-[1-(2-nitrophenyl)-2-methyl-propyloxy]methyl-7-deaza-2′-deoxyguanosine-5′-triphosphate] | 1.2 ± 0.2 nM | – | >830 10^2 | >21 10^2 | 5 10^2 | – |
| CC(C)C(OCc1cn([C@H]2C[C@H](O)[C@@H](COP(=O)(O)OP(=O)(O)OP(=O)(O)O)O2)c2nc(N)[nH]c(=O)c12)c1ccccc1[N+](=O)[O-] (single isomer, unassigned) [5p143-ds2, 7-[1-(2-nitrophenyl)-2-methyl-propyloxy]methyl-7-deaza-2′-deoxyguanosine-5′-triphosphate] | 1.3 ± 0.3 nM | – | >770 10^2 | >7.7 10^2 | 2.5 10^2 | – |
| CC(C)C(OCc1cn([C@H]2C[C@H](O)[C@@H](COP(=O)(O)OP(=O)(O)OP(=O)(O)O)O2)c2ncnc(N)c12)c1c([N+](=O)[O-])cccc1[N+](=O)[O-] (single isomer, unassigned) [6p057-ds1, 7-[1-(2,6-dinitrophenyl)-2-methyl-propyloxy]methyl-7-deaza-2′-deoxyadenosine-5′-triphosphate] | 5.2 ± 0.2 nM | 7.3 ± 1.2 s | – | – | – | – |
| CC(C)C(OCc1cn([C@H]2C[C@H](O)[C@@H](COP(=O)(O)OP(=O)(O)OP(=O)(O)O)O2)c2ncnc(N)c12)c1c([N+](=O)[O-])cccc1[N+](=O)[O-] (single isomer, unassigned) [6p057-ds2, 7-[1-(2,6-dinitrophenyl)-2-methyl-propyloxy]methyl-7-deaza-2′-deoxyadenosine-5′-triphosphate] | 5.8 ± 1.1 nM | 4.8 ± 0.5 s | – | – | – | – |
| Nc1nc2c(c(COCc3ccccc3[N+](=O)[O-])cn2[C@H]2C[C@H](O)[C@@H](COP(=O)(O)OP(=O)(O)OP(=O)(O)O)O2)c(=O)[nH]1 [5p107, 7-(2-nitrobenzyloxy)methyl-7-deaza-2′-deoxyguanosine-5′-triphosphate] | 1.5 ± 0.3 nM | – | 2.5 10^2 | 0.4 10^2 | 0.1 10^2 | – |
| Nc1nc2c(ncn2[C@H]2C[C@H](O)[C@@H](COP(=O)(O)OP(=O)(O)OP(=O)(O)O)O2)c(=O)[nH]1 [dGTP, reference compound] | – | – | 3.6 10^2 | 0.2 10^2 | 0.1 10^2 | – |
| Cc1cn([C@H]2C[C@H](O)[C@@H](COP(=O)(O)OP(=O)(O)OP(=O)(O)O)O2)c(=O)[nH]c1=O [dTTP, reference compound] | – | – | – | – | – | Average Weighted Sum ± SD ([4]; 1x IC50): 0.68; Average Weighted Sum ± SD ([4]; 5x IC50): 3.0; Average Weighted Sum ± SD ([4]; 25x IC50): 12.2; IC50 ([1]; adjusted IC50 used to set the concentrations of the termination assay, read-out: Adj IC50 Conc): 2.1 nM |
